EC50 and activation data for twelve compounds are collected here from patent US5914339A, “Substituted 1,3-benzodioxoles” (American Home Products Corporation, priority 1997, dated 1999).

Structures can show the parent of a compound that is named as a salt.

Chain of human β2 adrenergic receptor (P07550 whole entry): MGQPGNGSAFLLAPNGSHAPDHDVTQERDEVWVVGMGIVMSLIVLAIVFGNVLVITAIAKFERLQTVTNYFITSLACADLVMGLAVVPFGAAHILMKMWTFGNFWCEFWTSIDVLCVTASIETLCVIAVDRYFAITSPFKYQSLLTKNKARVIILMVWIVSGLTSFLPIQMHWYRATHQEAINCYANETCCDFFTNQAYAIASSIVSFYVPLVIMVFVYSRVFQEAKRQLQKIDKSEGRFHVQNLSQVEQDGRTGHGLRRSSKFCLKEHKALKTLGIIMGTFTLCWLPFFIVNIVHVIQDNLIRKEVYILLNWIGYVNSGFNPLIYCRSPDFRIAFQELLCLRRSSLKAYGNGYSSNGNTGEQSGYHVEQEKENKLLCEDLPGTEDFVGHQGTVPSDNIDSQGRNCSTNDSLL

One test has as its target human β2 adrenergic receptor (Homo sapiens, UniProt P07550). Briefly: cell-based.
Details: not given
Here is the method:
The activity of the test compounds on human β-adrenergic receptors was determined with Chinese hamster ovary (CHO) cells transfected with human β2, or β1 adrenergic receptors. Agonist activity is indicated by increased cAMP levels in the CHO cells. Selectivity of the test compounds for the β3 receptor was assessed by comparison with results in β2 and β1 adrenergic receptor transfected cells.
1). Chinese hamster ovary (CHO) cells transfected with human β2, or β1 adrenergic receptors were used in the assay.
2). Cells were grown to confluent conditions in 24 well plates.
3). Drugs were dissolved in DMSO at a concentration of 10 μM.
4). Cells were incubated with drug at 10 nM concentration for 10 min at 37° C.
5). Cell cAMP concentrations were assayed using a scintillation proximity assay kit from Amersham Corp., Chicago, Ill.
6). Activities for the test compounds are expressed as a percentage of the isoproterenol response.
Production of the CHO cells transfected with human β2, or β1 adrenergic receptors, and compound test procedures utilizing the CHO cells, are described by Emorine et al. in their article "Molecular Characterization of the Human Beta3 -Adrenergic Receptor", Science 1989, 245(8), 1118-1121 and by Muzzin et al. in the article "An Adipose Tissue-Specific Beta3 -Adrenergic Receptor", J. Biol. Chem.1991, 266, 24053-24058.
^a Human β receptors expressed in Chinese hamster ovary cells,
compounds tested at 10 nM, results expressed as % of isoproterenol
activity (increase in cAMP) at 10 μM. EC50 (μM) values
determined for selected compounds.
`CC(Cc1ccc2c(c1)OC(C(=O)O)(C(=O)OC(C)C)O2)NCC(O)c1cccc(Cl)c1` (stereo not drawn) [Example 22, 5-{2-[2-(3-Chloro-phenyl)-2-hydroxy-ethylamino]-propyl}-benzo[1,3]dioxole-2,2-dicarboxylic acid isopropyl ester]: the response was half-maximal at 15 nM (EC50).

Still in this test, the particulars now being: 10 min; compounds tested at 10 nM, isoproterenol at 10 μM; CHO cells, 10 min at 37° C; read-out: β2: % of isoproterenol activity (increase in cAMP).
Turning to `C[C@H](Cc1ccc2c(c1)OC(C(=O)O)(C(=O)OCC13CC4CC(CC(C4)C1)C3)O2)NC[C@H](O)c1cccc(Cl)c1` (stereo partly drawn) [Example 79, 5-{(2R)-2-[(2R)-2-(3-Chloro-phenyl)-2-hydroxy-ethylamino]-propyl}-benzo[1,3]dioxole-2,2-dicarboxylic acid adamantan-1-ylmethyl ester], the activation at 0.01 µM worked out at 0%.

`CC(Cc1ccc2c(c1)OC(C(=O)O)(C(=O)OCCc1ccsc1)O2)NCC(O)c1cccc(Cl)c1` (stereo not drawn) [Example 72, 5-{2-[2-(3-Chloro-phenyl)-2-hydroxy-ethylamino]-propyl}-benzo[1,3]dioxole-2,2-dicarboxylic acid 2-(3-Thienyl)ethyl ester]: the activation at 0.01 µM came to 13%.

In the case of `CC(Cc1ccc2c(c1)OC(C(=O)O)(C(=O)O)O2)N1COC(c2cccc(Cl)c2)C1` (stereo not drawn) [Example 66], the activation at 0.01 µM was 3%.

As to `CC(Cc1ccc2c(c1)OC(C(=O)OCCC1CCCC1)(C(=O)OCCC1CCCC1)O2)NCC(O)c1cccc(Cl)c1` (stereo not drawn) [Example 41, 5-{2-[2-(3-Chloro-phenyl)-2-hydroxy-ethylamino]-propyl}-benzo[1,3]dioxole-2,2-dicarboxylic acid bis-(2-cyclopentyl-ethyl) ester], the activation at 0.01 µM is 22%.

For the compound `CCCCCC(=O)OCOC(=O)C1(C(=O)OCOC(=O)CCCCC)Oc2ccc(CC(C)NCC(O)c3cccc(Cl)c3)cc2O1` (stereo not drawn) [Example 48, 5-{2-[2-(3-Chloro-phenyl)-2-hydroxyethylamino]propyl}benzo[1,3] dioxole-2,2-dicarboxylic acid bis-hexanoyloxymethyl ester], the activation at 0.01 µM stood at 4%.

On to `CC(Cc1ccc2c(c1)OC(C(=O)OCCCC1CCCC1)(C(=O)OCCCC1CCCC1)O2)NCC(O)c1cccc(Cl)c1` (stereo not drawn) [Example 37, 5-{2-[2-(3-Chloro-phenyl)-2-hydroxy-ethylamino]-propyl}-benzo[1,3]dioxole-2,2-dicarboxylic acid bis-(3-cyclopentyl-propyl) ester], for which the activation at 0.01 µM was 3%.

`CCCC(=O)OCOC(=O)C1(C(=O)OCOC(=O)CCC)Oc2ccc(CC(C)NCC(O)c3cccc(Cl)c3)cc2O1` (stereo not drawn) [Example 44, 5-{2-[2-(3-Chloro-phenyl)-2-hydroxyethylamino]propyl}benzo[1,3] dioxole-2,2-dicarboxylic acid bis-butyryloxymethyl ester]: the activation at 0.01 µM is 0%.

As to `CC(Cc1ccc2c(c1)OC(C(=O)O)(C(=O)OCCOC(C)(C)C)O2)NCC(O)c1cccc(Cl)c1` (stereo not drawn) [Example 7, 5-{2-[2-(3-Chloro-phenyl)-2-hydroxy-ethylamino]-propyl}-benzo[1,3]dioxole-2,2-dicarboxylic acid (2-tert-butoxy-ethyl) ester], the activation at 0.01 µM amounted to 2%.

Staying with this test, now noted: CHO, 10 min, read-out: β2: % of isoproterenol activity (increase in cAMP).
With `CCOCCOC(=O)C1(C(=O)OCCOCC)Oc2ccc(CC(C)NCC(O)c3cccc(Cl)c3)cc2O1` (stereo not drawn) [Example 5, 5-{2-[2-(3-Chloro-phenyl)-2-hydroxy-ethylamino]-propyl}-benzo[1,3]dioxole-2,2-dicarboxylic acid bis-(2-ethoxy-ethyl) ester hydrochloride salt], the activation at 0.01 µM is 4%.

With `CCOCCOC(=O)C1(C(=O)O)Oc2ccc(C[C@@H](C)NC[C@H](O)c3cccc(Cl)c3)cc2O1` (stereo partly drawn) [Example 95, 5-{(2R)-2-[(2R)-2-(3-Chloro-phenyl)-2-hydroxy-ethylamino]-propyl}-benzo[1,3]dioxole-2,2-dicarboxylic acid (2-ethoxy-ethyl) ester], the activation at 0.01 µM came to 0%.

Regarding `CC(Cc1ccc2c(c1)OC(C(=O)OCCC[Si](C)(C)C)(C(=O)OCCC[Si](C)(C)C)O2)NCC(O)c1cccc(Cl)c1` (stereo not drawn) [Example 32, 5-{2-[2-(3-Chloro-phenyl)-2-hydroxy-ethylamino]-propyl}-benzo[1,3]dioxole-2,2-dicarboxylic acid bis-(3-trimethylsilanyl-propyl) ester], the activation at 0.01 µM is 2%.
